Source: patent publication US20230210999A1, “TARGETED PROTEASE DEGRADATION (TED) PLATFORM” (EUBULUS BIOTHERAPEUTICS INC., priority 2020, published 2023)

Legend:
[1] = test system: THP-1 cells; assay: Cell proliferation experiment, THP-1; format: cell-based; conditions: Homo sapiens, 72 h, read-out: Inhibitory activity IC50 of tested compounds on THP-1 cells
Experimental: (§1) Reagents: RPMI-1640 medium, McCoy's 5A medium, IMDM medium, MEM medium, L-15 medium, fetal bovine serum. Penicillin-Streptomycin double antibody, trypsin, etc., 2-mercaptoethanol, NEAA, pyruvate, etc.
(§2) The cells were cultured in conventional ways, and the cells should be passed at least 2 generations before plating. Cells at the logarithmic growth phase were collected, prepared into single cell suspensions and counted. The concentration of cells was adjusted to the desired concentration, and cells were inoculated into a 96-well cell culture plate at 100 μl per well. 100 μL of complete medium of the test compound were added to each well, set up 2 duplicate wells for each concentration, and diluted with a 5-fold gradient, and continued to culture for 72 h. All cells were subjected to IC50 test for corresponding samples. The experimental results are shown in Test Example 4.
(§3) The fluorescence intensity of each well was detected using the Alarm blue method, and IC50 was calculated.
(§4) IC50 was calculated according to the following formula:
(§5) Y=Max+(Min−Max)/[1+(X/IC50)×Slope]
(§6) wherein Min, Max and Slope represent the minimum, maximum and slope respectively.

[2] = test system: HL-60 cells; assay: Cell proliferation experiment, HL-60; format: cell-based; conditions: Homo sapiens, 72 h, read-out: Inhibitory activity IC50 of tested compounds on HL-60 cells
Experimental: as §1, §2, §3, §4, §5, §6

[3] = test system: MV4;11 cells; assay: Cell proliferation experiment (Alamar blue, 72 h), MV4;11; format: cell-based, human; conditions: Homo sapiens, MV4-11, 72 h, MV4;11 cells, 72 h; read-out: Inhibitory activity IC50 of tested compounds on MV4;11 cells
Procedure, shortened: (§7)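 Viability read by Alamar blue. 72 h treatment, 5-fold dilution series, duplicates; log-phase cells in 96-well plates; IC50 by curve fit.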

[4] = test system: NCIH82 cells; assay: Cell proliferation experiment, NCI-H82; format: cell-based, human; conditions: Homo sapiens, NCI-H82, 72 h, NCIH82 cells, 72 h; read-out: Inhibitory activity IC50 of tested compounds on NCIH82 cells
Procedure, shortened: as §7

[5] = test system: U-87MG cells; assay: Cell proliferation experiment, U-87MG; format: cell-based; conditions: Homo sapiens; U-87MG cells, 72 h; read-out: Inhibitory activity IC50 of tested compounds on U-87MG cells
Procedure, shortened: as §7

[6] = test system: HT-29 cells; assay: Cell proliferation experiment, HT-29; format: cell-based; conditions: Homo sapiens; HT-29 cells, 72 h; read-out: Inhibitory activity IC50 of tested compounds on HT-29 cells
Procedure, shortened: as §7

[7] = test system: Daudi cells; assay: Cell proliferation experiment, Daudi; format: cell-based, human; conditions: Homo sapiens, Daudi, 72 h, Daudi cells, 72 h; read-out: Inhibitory activity IC50 of tested compounds on Daudi cells
Procedure, shortened: as §7

[8] = test system: MDA-MB-231 cells; assay: Cell proliferation experiment, MDA-MB-231; format: cell-based, human; conditions: Homo sapiens, MDA-MB-231, 72 h, MDA-MB-231 cells, 72 h; read-out: Inhibitory activity IC50 of tested compounds on MDA-MB-231 cells
Procedure, shortened: as §7

[9] = test system: Hela cells; assay: Cell proliferation experiment, Hela; format: cell-based; conditions: Homo sapiens, 72 h, read-out: Inhibitory activity IC50 of tested compounds on Hela cells
Experimental: as §1, §2, §3, §4, §5, §6

[10] = test system: MOL4-4 cells; assay: Cell proliferation experiment, MOL4-4; format: cell-based; conditions: Homo sapiens, 72 h, read-out: Inhibitory activity IC50 of tested compounds on MOL4-4 cells
Experimental: as §1, §2, §3, §4, §5, §6

[11] = test system: HUVEC cells; assay: Cell proliferation experiment, HUVEC; format: cell-based; conditions: Homo sapiens, 72 h, read-out: Inhibitory activity IC50 of tested compounds on HUVEC cells
Experimental: as §1, §2, §3, §4, §5, §6

With `CC[C@@H]1C(=O)N(C)c2cnc(Nc3ccc(C(=O)NC4CCN(CCOCCNCCC#Cc5cccc6c5CN(C5CCC(=O)NC5=O)C6=O)CC4)cc3OC)nc2N1C1CCCC1` (stereo partly drawn) [Compound 874] the IC50 [1] was ≤ 1000 nM, the IC50 [2] was ≤ 1000 nM and the IC50 [3] was ≤ 100 nM. For the same compound, the IC50 [4] was ≤ 1000 nM, the IC50 [5] was 100 to 500 nM and the IC50 [6] was 300 to 1000 nM. The IC50 [7] was 100 to 1000 nM.
With `CC[C@@H]1C(=O)N(C)c2cnc(Nc3ccc(C(=O)NCCCOCCOCCCN(C)CCC#Cc4cccc5c4CN(C4CCC(=O)NC4=O)C5=O)cc3OC)nc2N1C1CCCC1` (stereo partly drawn) [Compound 883] the IC50 [8] was ≤ 500 nM, the IC50 [1] was ≤ 1000 nM and the IC50 [2] was ≤ 1000 nM. For the same compound, the IC50 [3] was ≤ 100 nM, the IC50 [9] was ≤ 1000 nM and the IC50 [4] was ≤ 1000 nM. For the same compound, the IC50 [10] was ≤ 100 nM, the IC50 [11] was ≤ 1000 nM and the IC50 [5] was ≤ 100 nM. The IC50 [6] was 300 to 1000 nM and the IC50 [7] was ≤ 100 nM.
`CC[C@@H]1C(=O)N(C)c2cnc(Nc3ccc(C(=O)NCCCN(C)CCOCCCC#Cc4cccc5c4CN(C4CCC(=O)NC4=O)C5=O)cc3OC)nc2N1C1CCCC1` (stereo partly drawn) [Compound 884] was tested, and the IC50 [8] was ≤ 500 nM, the IC50 [1] was ≤ 1000 nM and the IC50 [2] was ≤ 1000 nM. The IC50 [3] was ≤ 100 nM, the IC50 [9] was ≤ 1000 nM and the IC50 [4] was ≤ 1000 nM. The IC50 [10] was ≤ 100 nM, the IC50 [11] was ≤ 1000 nM and the IC50 [5] was ≤ 100 nM. For the same compound, the IC50 [6] was 300 to 1000 nM and the IC50 [7] was ≤ 100 nM.
For `CC[C@@H]1C(=O)N(C)c2cnc(Nc3ccc(C(=O)NCCCOCCNCCC#Cc4cccc5c4CN(C4CCC(=O)NC4=O)C5=O)cc3OC)nc2N1C1CCCC1` (stereo partly drawn) [Compound 888], the IC50 [8] was ≤ 500 nM, the IC50 [1] was ≤ 1000 nM and the IC50 [2] was ≤ 1000 nM. For the same compound, the IC50 [3] was ≤ 100 nM, the IC50 [9] was ≤ 1000 nM and the IC50 [4] was ≤ 1000 nM. For the same compound, the IC50 [10] was ≤ 100 nM, the IC50 [11] was ≤ 1000 nM and the IC50 [5] was 100 to 500 nM. The IC50 [6] was 300 to 1000 nM and the IC50 [7] was ≤ 100 nM.
In the case of `CC[C@@H]1C(=O)N(C)c2cnc(Nc3ccc(C(=O)NC4CCC(N5CCN(CCC#Cc6cccc7c6CN(C6CCC(=O)NC6=O)C7=O)CC5)CC4)cc3OC)nc2N1C1CCCC1` (stereo partly drawn) [Compound 889], the IC50 [8] is reported as ≤ 500 nM, the IC50 [1] is reported as ≤ 1000 nM and the IC50 [2] is reported as ≤ 1000 nM. For the same compound, the IC50 [3] was ≤ 100 nM, the IC50 [9] was ≤ 1000 nM and the IC50 [4] was ≤ 1000 nM. For the same compound, the IC50 [10] was ≤ 100 nM, the IC50 [11] was ≤ 1000 nM and the IC50 [5] was ≤ 100 nM. The IC50 [6] was ≤ 300 nM and the IC50 [7] was ≤ 100 nM.
With `CC[C@@H]1C(=O)N(C)c2cnc(Nc3ccc(C(=O)NCCCOCCCOCCNCCC#Cc4cccc5c4CN(C4CCC(=O)NC4=O)C5=O)cc3OC)nc2N1C1CCCC1` (stereo partly drawn) [Compound 892] the IC50 [8] was ≤ 500 nM, the IC50 [2] was ≤ 1000 nM and the IC50 [3] was ≤ 100 nM. For the same compound, the IC50 [9] was ≤ 1000 nM, the IC50 [4] was ≤ 1000 nM and the IC50 [11] was ≤ 1000 nM. For the same compound, the IC50 [5] was ≤ 100 nM, the IC50 [6] was 300 to 1000 nM and the IC50 [7] was 100 to 1000 nM.
For `CC[C@@H]1C(=O)N(C)c2cnc(Nc3ccc(C(=O)NCCCOCCNCCOCCC#Cc4cccc5c4CN(C4CCC(=O)NC4=O)C5=O)cc3OC)nc2N1C1CCCC1` (stereo partly drawn) [Compound 893], the IC50 [8] was ≤ 500 nM, the IC50 [2] was ≤ 1000 nM and the IC50 [3] was ≤ 100 nM. For the same compound, the IC50 [9] was ≤ 1000 nM, the IC50 [4] was ≤ 1000 nM and the IC50 [11] was ≤ 1000 nM. The IC50 [5] was ≤ 100 nM, the IC50 [6] was ≤ 300 nM and the IC50 [7] was ≤ 100 nM.
